Test results taken from the supplement of paper PMC10307832.

Legend:
Test in all cases: relative viability (nuclei count vs DMSO), 5 days (fraction); higher = more cells survive
UMC-11 = tested on: UMC-11
Procedure, shortened: (§1)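 Five library-drug doses in √10 steps were combined with a fixed anchor-drug dose, or a single drug was given alone, by pin tool to lung cancer cell lines in 1536-well plates the day after seeding. Nuclei were stained and counted after 5 days. Relative viability is the nuclei count in treated wells over that in vehicle wells, taken as the median of duplicate plates.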

NCI-H23 = tested on: NCI-H23
Procedure, shortened: as §1

NCI-H1993 = tested on: NCI-H1993
Procedure, shortened: as §1

ABC-1 = tested on: ABC-1
Procedure, shortened: as §1

A-427 = tested on: A-427
Procedure, shortened: as §1

LC-2-ad = tested on: LC-2-ad
Procedure, shortened: as §1

NCI-H2228 = tested on: NCI-H2228
Procedure, shortened: as §1

NCI-H1734 = tested on: NCI-H1734
Procedure, shortened: as §1

HCC-15 = tested on: HCC-15
Procedure, shortened: as §1

SK-LU-1 = tested on: SK-LU-1
Procedure, shortened: as §1

NCI-H1650 = tested on: NCI-H1650
Procedure, shortened: as §1

NCI-H1793 = tested on: NCI-H1793
Procedure, shortened: as §1

EMC-BAC-2 = tested on: EMC-BAC-2
Procedure, shortened: as §1

COR-L23 = tested on: COR-L23
Procedure, shortened: as §1

NCI-H2023 = tested on: NCI-H2023
Procedure, shortened: as §1

NCI-H2405 = tested on: NCI-H2405
Procedure, shortened: as §1

NCI-H2009 = tested on: NCI-H2009
Procedure, shortened: as §1

ChaGo-K-1 = tested on: ChaGo-K-1
Procedure, shortened: as §1

HCC-366 = tested on: HCC-366
Procedure, shortened: as §1

HCC-78 = tested on: HCC-78
Procedure, shortened: as §1

NCI-H1944 = tested on: NCI-H1944
Procedure, shortened: as §1

HARA = tested on: HARA
Procedure, shortened: as §1

NCI-H838 = tested on: NCI-H838
Procedure, shortened: as §1

LK-2 = tested on: LK-2
Procedure, shortened: as §1

Work on `Clc1ccc(Nc2nnc(Cc3ccncc3)c3ccccc23)cc1` [Vatalanib] + COc1cccc2cc(-c3nc([C@H]4CC[C@H](C(=O)O)CC4)n4ncnc(N)c34)[nH]c12 [OSI-027] (partner 0.5 µM) yielded a relative viability (UMC-11; first compound 0.04 µM) of 0.461, a relative viability (UMC-11; first compound 0.1265 µM) of 0.487 and a relative viability (UMC-11; first compound 0.4 µM) of 0.44. For the same compound, the relative viability (UMC-11; first compound 1.265 µM) was 0.433, the relative viability (UMC-11; first compound 4 µM) was 0.518 and the relative viability (NCI-H23; first compound 0.04 µM) was 0.634. It also gave a relative viability (NCI-H23; first compound 0.1265 µM) of 0.613, a relative viability (NCI-H23; first compound 0.4 µM) of 0.779 and a relative viability (NCI-H23; first compound 1.265 µM) of 0.517. It also gave a relative viability (NCI-H23; first compound 4 µM) of 0.387, a relative viability (NCI-H1993; first compound 0.04 µM) of 0.55 and a relative viability (NCI-H1993; first compound 0.1265 µM) of 0.558. It also gave a relative viability (NCI-H1993; first compound 0.4 µM) of 0.554, a relative viability (NCI-H1993; first compound 1.265 µM) of 0.594 and a relative viability (NCI-H1993; first compound 4 µM) of 0.58. The relative viability (ABC-1; first compound 0.04 µM) was 0.444, the relative viability (ABC-1; first compound 0.1265 µM) was 0.512 and the relative viability (ABC-1; first compound 1.265 µM) was 0.381. The relative viability (ABC-1; first compound 4 µM) was 0.486, the relative viability (A-427; first compound 0.04 µM) was 0.504 and the relative viability (A-427; first compound 0.1265 µM) was 0.453. The relative viability (A-427; first compound 0.4 µM) was 0.494, the relative viability (A-427; first compound 1.265 µM) was 0.464 and the relative viability (A-427; first compound 4 µM) was 0.486. For the same compound, the relative viability (LC-2-ad; first compound 0.04 µM) was 0.935, the relative viability (LC-2-ad; first compound 0.1265 µM) was 0.865 and the relative viability (LC-2-ad; first compound 1.265 µM) was 0.785. For the same compound, the relative viability (LC-2-ad; first compound 4 µM) was 0.826, the relative viability (NCI-H2228; first compound 0.04 µM) was 0.568 and the relative viability (NCI-H2228; first compound 0.1265 µM) was 0.566. The relative viability (NCI-H2228; first compound 0.4 µM) was 0.604, the relative viability (NCI-H2228; first compound 1.265 µM) was 0.589 and the relative viability (NCI-H2228; first compound 4 µM) was 0.504. For the same compound, the relative viability (NCI-H1734; first compound 0.04 µM) was 0.675, the relative viability (NCI-H1734; first compound 0.1265 µM) was 0.463 and the relative viability (NCI-H1734; first compound 0.4 µM) was 0.697. The relative viability (NCI-H1734; first compound 1.265 µM) was 0.563, the relative viability (NCI-H1734; first compound 4 µM) was 0.589 and the relative viability (HCC-15; first compound 0.04 µM) was 0.714. For the same compound, the relative viability (HCC-15; first compound 0.1265 µM) was 0.724, the relative viability (HCC-15; first compound 0.4 µM) was 0.535 and the relative viability (HCC-15; first compound 1.265 µM) was 0.582. It also gave a relative viability (HCC-15; first compound 4 µM) of 0.523, a relative viability (SK-LU-1; first compound 0.04 µM) of 0.365 and a relative viability (SK-LU-1; first compound 0.1265 µM) of 0.346. The relative viability (SK-LU-1; first compound 0.4 µM) was 0.395, the relative viability (SK-LU-1; first compound 1.265 µM) was 0.357 and the relative viability (SK-LU-1; first compound 4 µM) was 0.348. It also gave a relative viability (NCI-H1650; first compound 0.04 µM) of 0.769, a relative viability (NCI-H1650; first compound 0.1265 µM) of 0.454 and a relative viability (NCI-H1650; first compound 0.4 µM) of 0.438. It also gave a relative viability (NCI-H1650; first compound 1.265 µM) of 0.633, a relative viability (NCI-H1650; first compound 4 µM) of 0.514 and a relative viability (NCI-H1793; first compound 0.04 µM) of 0.268. It also gave a relative viability (NCI-H1793; first compound 0.1265 µM) of 0.226, a relative viability (NCI-H1793; first compound 0.4 µM) of 0.309 and a relative viability (NCI-H1793; first compound 1.265 µM) of 0.217. It also gave a relative viability (NCI-H1793; first compound 4 µM) of 0.184, a relative viability (EMC-BAC-2; first compound 0.04 µM) of 0.413 and a relative viability (EMC-BAC-2; first compound 0.1265 µM) of 0.392. For the same compound, the relative viability (EMC-BAC-2; first compound 0.4 µM) was 0.398, the relative viability (EMC-BAC-2; first compound 1.265 µM) was 0.335 and the relative viability (EMC-BAC-2; first compound 4 µM) was 0.4. It also gave a relative viability (COR-L23; first compound 0.04 µM) of 0.814, a relative viability (COR-L23; first compound 0.1265 µM) of 0.765 and a relative viability (COR-L23; first compound 0.4 µM) of 0.891. It also gave a relative viability (COR-L23; first compound 1.265 µM) of 0.709, a relative viability (COR-L23; first compound 4 µM) of 0.722 and a relative viability (NCI-H2023; first compound 0.04 µM) of 0.376. The relative viability (NCI-H2023; first compound 0.1265 µM) was 0.366, the relative viability (NCI-H2023; first compound 0.4 µM) was 0.419 and the relative viability (NCI-H2023; first compound 1.265 µM) was 0.342. It also gave a relative viability (NCI-H2023; first compound 4 µM) of 0.343, a relative viability (NCI-H2405; first compound 0.04 µM) of 0.665 and a relative viability (NCI-H2405; first compound 0.1265 µM) of 0.631. The relative viability (NCI-H2405; first compound 1.265 µM) was 0.666, the relative viability (NCI-H2405; first compound 4 µM) was 0.608 and the relative viability (NCI-H2009; first compound 0.04 µM) was 0.73. For the same compound, the relative viability (NCI-H2009; first compound 0.1265 µM) was 0.561, the relative viability (NCI-H2009; first compound 0.4 µM) was 0.647 and the relative viability (NCI-H2009; first compound 1.265 µM) was 0.58. It also gave a relative viability (NCI-H2009; first compound 4 µM) of 0.626, a relative viability (ChaGo-K-1; first compound 0.04 µM) of 0.589 and a relative viability (ChaGo-K-1; first compound 0.1265 µM) of 0.548. It also gave a relative viability (ChaGo-K-1; first compound 0.4 µM) of 0.622, a relative viability (ChaGo-K-1; first compound 1.265 µM) of 0.5 and a relative viability (ChaGo-K-1; first compound 4 µM) of 0.594. It also gave a relative viability (HCC-366; first compound 0.04 µM) of 1.18, a relative viability (HCC-366; first compound 0.1265 µM) of 0.846 and a relative viability (HCC-366; first compound 0.4 µM) of 1.13. It also gave a relative viability (HCC-366; first compound 1.265 µM) of 0.736, a relative viability (HCC-366; first compound 4 µM) of 0.548 and a relative viability (HCC-78; first compound 0.04 µM) of 0.318. It also gave a relative viability (HCC-78; first compound 0.1265 µM) of 0.37, a relative viability (HCC-78; first compound 0.4 µM) of 0.381 and a relative viability (HCC-78; first compound 1.265 µM) of 0.306. It also gave a relative viability (HCC-78; first compound 4 µM) of 0.351, a relative viability (NCI-H1944; first compound 0.04 µM) of 0.42 and a relative viability (NCI-H1944; first compound 0.1265 µM) of 0.421. It also gave a relative viability (NCI-H1944; first compound 0.4 µM) of 0.413, a relative viability (NCI-H1944; first compound 1.265 µM) of 0.411 and a relative viability (NCI-H1944; first compound 4 µM) of 0.336. For the same compound, the relative viability (HARA; first compound 0.04 µM) was 0.506, the relative viability (HARA; first compound 0.1265 µM) was 0.595 and the relative viability (HARA; first compound 0.4 µM) was 0.71. It also gave a relative viability (HARA; first compound 1.265 µM) of 0.492, a relative viability (HARA; first compound 4 µM) of 0.422 and a relative viability (NCI-H838; first compound 0.04 µM) of 0.428. The relative viability (NCI-H838; first compound 0.1265 µM) was 0.384, the relative viability (NCI-H838; first compound 0.4 µM) was 0.379 and the relative viability (NCI-H838; first compound 1.265 µM) was 0.404. For the same compound, the relative viability (NCI-H838; first compound 4 µM) was 0.443, the relative viability (LK-2; first compound 0.04 µM) was 0.211 and the relative viability (LK-2; first compound 0.1265 µM) was 0.208. For the same compound, the relative viability (LK-2; first compound 0.4 µM) was 0.214, the relative viability (LK-2; first compound 1.265 µM) was 0.196 and the relative viability (LK-2; first compound 4 µM) was 0.198.
